Experimental findings from patent US20200270310A1, “MAFG AS A POTENTIAL THERAPEUTIC TARGET TO RESTORE CHEMOSENSITIVITY IN PLATINUM-RESISTANT CANCER CELLS” (FUNDACÓIN PARA LA INVESTIGACIÓN BIOMÉDICA DEL HOSPITAL …, priority 2017, published 2020) are described below.

Series [1] concerns H23R cells. Description: Viability to CDDP after aptamer transfection (resistance index). Format: cell-based, human. Particulars: comparison value for apMAFG6F. The procedure: FIG. 6. Viability curves combining the best dose of aptamers (25nM) and increasing doses of CDDP. Each experimental group was exposed for 72 h to 6 different CDDP concentrations after aptamers transfection; data were normalized to each untreated control, set to 100% and represent the mean±SD of at least 3 independent experiments performed in quadruplicate at each drug concentration for each cell line analyzed 25nM of aptamers and increasing doses of CDDP in H23S/R cells.
Once identified the best dose of aptamers, cells were transfected with aptamers and treated with increased doses of CDDP to assay viability and ROS production as mentioned above. In parallel, for all the experiments, cells were seeded in 24-well plates for aptamers extraction and confirmation of aptamers transfection.
HEK293 and H23S/R cells were seeded into 96-well plates then transfected with 5, 12.5, 25, 75 and 100 nM of MAFG aptamers or treated with PBS-Mg using Jet Pei PolyPlus transfection reagent (PolyPlus Transfection, USA). The dose of 25 nM aptamer was afterwards used in combination with increased doses of CDDP to assay viability and ROS production as described above. To confirm the aptamer-transfection efficiency cells were seeded in 24-well plates for aptamer isolation and confirmation of aptamer transfection by quantitative analysis. A Myc-DDK-tagged ORF clone of MAFG the negative control pCMV6 were used for in transient transfection (OriGene, USA) in combination with MAFG-aptamers following the same procedure.

A further series deals with IMIM-PC2 cells. Description: Viability to CDDP. Format: cell-based, human. The text has this:
(§1) Fifteen human cancer cell lines were purchased from ATCC (Manassas, Va.) or ECACC (Sigma-Aldrich, Spain) and cultured as recommended. The CDDP-resistant variants A2780R and OVCAR3R were selected after a final exposure to […] cisplatin, respectively (Farma Ferrer, Spain), as previously described for H23R and H460R variants The additional 11 human cell lines, PC-3, LNCAP, H727, HT29, A549, BT474, LoVo, IMIM-PC-2, SKOV3, SW780 and IMR90, were used for further validations. For viability assays cells were treated with increasing doses of CDDP. The epigenetic reactivation drugs 5Aza-2deoxycytidine (5Aza-dC) and trichostatin A (TSA) (Sigma-Aldrich, Spain) were used at […] and at 300nM respectively.

The next series relates to LoVo cells. Description: Viability to CDDP. The format is cell-based, human.
Text: as §1

Another series deals with OVCAR3-R cells. Description: Viability to CDDP, resistant index. Format: cell-based, human. The following applies: versus parental OVCAR3.
Text: as §1

In another series the test system is A2780-R cells. In words: Viability to CDDP, resistant index. The format is cell-based, human. Particulars: versus parental A2780.
Text: as §1

Series [2] deals with H23R cells. Description: Viability to CDDP, resistant index. The format is cell-based, human. Particulars: versus H23S.
Text: as §1

The subject of the next series is H460R cells. Description: Viability to CDDP, resistant index. The format is cell-based, human. Particulars: versus parental H460.
Text: as §1

In series [3] the test system is H23R cells. In words: ROS production and viability after aptamer transfection and CDDP treatment. The format is cell-based, human. The method, then:
FIG. 7: Viability and ROS production assay in H23R cells after apMAFG6F transfection. Each experimental group was exposed for 72 h to 6 different CDDP concentrations, and data were normalized to each untreated control, set to 100%. The data represent the mean±SD of at least 2 independent experiments performed in duplicate at each drug concentration for each cell line analyzed.
H23/A2780 cells were cultured in 96-well black plates at density of 10,000 cells/well. Cells were treated with 6 different doses of CDDP for 24, 48 and 72 h in RPMI containing 10% FBS. Then treatments were removed and cells were loaded with the fluorescent probe 2′,7′-dichlorodihydrofluorescein diacetate (H2DCFDA) (10 μM) for 45 minutes in RPMI medium (FBS free). Cells were washed twice with RPMI (10% FBS), and fluorescence was recorded in a Fluostar Optima, each hour, over 4 hours period. […] ROS production was calculated dividing the mean H2DCFDA fluorescence by the mean viability. […] All experiments included cells treated with RPMI alone (Basal), and one well without cells as fluorescence basal.
H23/A2780 cells were cultured in 96-well black plates at density of 10,000 cells/well. […] Cells were washed twice with RPMI (10% FBS), and fluorescence was recorded in a Fluostar Optima at 520 nm after excitation at 485 nm. […] ROS production was calculated dividing the mean H2DCFDA fluorescence by the mean viability. […]

Series [4] has as its target T1, MAFG in tumor samples of patients with lung cancer (Homo sapiens, UniProt O15525).
T1 construct: from tissue; host or cells: Formalin-fixed paraffin-embedded NSCLC tumour sections
In words: Aptahistochemistry in NSCLC tumor samples. The following applies: 20 tumor samples classified by MAFG mRNA levels. The method, then:
The formalin-fixed and paraffin-embedded tissue sections of patients with lung cancer were baked 15 minutes at 60° C. Deparaffinization was performed by two washes of xylene for 10 minutes each. Tissue sections were rehydrated by a sequential wash in 100%, 90%, 80%, 70% ethanol and distilled water for 5 minutes each. Antigen retrieval was achieved by heat treatment in a pressure cooker for 2 minutes in 10 mM citrate buffer (pH 6.5). Endogenous peroxidase activity of tissues was blocked with 0.3% […]. The primary binding reaction was performed with 10 pmol/ml of digoxigenin-conjugated aptamers overnight at room temperature. The secondary binding reaction was performed with anti-digoxigenin conjugated with POD (Roche; 1/200 dilution in TBS) for 45 minutes. Staining was done using the Immunoperoxidase DAB kit (Master Diagnostica), according to the manufacturer's instructions. The sections were counterstained with hematoxylin.
We then took advantage of the aptacytochemistry to perform an aptamer-based histochemistry in 20 tumor samples from our cohort of patients with known mRNA levels of MAFG. […] To determine the correlation between the aptahistochemistry and the mRNA levels of MAFG, we calculated the percentage of cells with positive staining from the total number of cells computed at four different areas randomly selected for each sample.

“And” between values parts separate entries of the source, which are not always exact repeats. Equal values may be shown once. “Also recorded” adds a separate entry of the source.

T1 sequence (O15525 whole entry): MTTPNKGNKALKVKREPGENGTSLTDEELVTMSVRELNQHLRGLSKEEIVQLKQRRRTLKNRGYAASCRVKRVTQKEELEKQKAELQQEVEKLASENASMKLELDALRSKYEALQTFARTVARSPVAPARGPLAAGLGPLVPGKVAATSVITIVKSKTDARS

In the case of `[NH2][Pt]([NH2])([Cl])[Cl]` [CDDP, Cisplatin], the “CDDP resistance index without aptamer” value in the series with H23R cells [1] amounted to 2.63. Moreover, the “IC50 of CDDP” value in the series with IMIM-PC2 cells and in the series with LoVo cells was “over 2 μg/ml” throughout. The “Resistant-Index (RI) to CDDP” value with OVCAR3-R cells is 2.96; with A2780-R cells it was 3.00; with H23R cells [2] it was 3.35 and > 3; in the series with H460R cells it was 2.50.

B1: GCGGATGAAGACTGGTGTCGATGCATGTGTAGTGCATTTCGAGCCGTTCTATTGGTGTGCCCTAAATACGAGCAAC (nucleic acid)
chain: GCGGATGAAGACTGGTGTCGATGCATGTGTAGTGCATTTCGAGCCGTTCTATTGGTGTGCCCTAAATACGAGCAAC
modifications: chemistry not given here
notes: DNA aptamer selected against the MAFG protein by SELEX
B1: in the series on H23R cells [3] (measured in parallel to ROS), the “cell viability after aptamer transfection and CDDP” value is “decrease of cell viability; also recorded: decrease in cell viability”. In the series on H23R cells [3] (resistant cells carrying aptamer vs untransfected, p<0.005 at 4 μg/ml CDDP), the “ROS production after aptamer transfection and CDDP” value is recorded as “increase of ROS production; also recorded: linear dose-response relationship”. The “percentage of positive cells in samples with higher MAFG levels” value in series [4] is “significant increment in the percentage of positive cells”.
